{"source": "patent US20070249725A1", "about": "“Pharmaceutical formulations of sympathetic antagonist for the treatment of chronic muscle pain” (priority 2006, published 2007)", "test": "Adverse events in subjects treated by trigger point injection (Example 1)", "format": "in vivo, human", "procedure": "A total of 326 male and female subjects, approximately 15 to 85 years old with pain of 4-72 month duration were treated with various doses of phenoxybenzamine. If a potential subject had pain that was clearly muscular and clearly not due to arthritis, nerve root compression or other extramuscular cause, the subject was considered a candidate for phenoxybenzamine hydrochloride injection. Trigger points were identified by palpation. A monopolar EMG needle was then inserted into the trigger point. Another monopolar EMG needle was inserted into a nearby nontender fibers of the same muscle. […] The treatment was repeated in up to 10-12 trigger points per treatment session. Subjects could return for up to 6 treatment sessions, depending on the extent of their pain. The initial treatment was with a dose of 25 mg of phenoxybenzamine hydrochloride in an injection volume of 2 ml. […] For 318 subjects, data were available for analysis for the doses of phenoxybenzamine hydrochloride used, efficacy and incidence of serious adverse events.\nThe frequencies of other adverse events occurring in the first 199 subjects treated, including the first 87 subjects treated with the 3 mg dose, are given in the table below. Results with an additional 131 subjects treated with the 3 mg dose have been similar.", "key": {"[1]": {"conditions": "3 mg, multiple injections, N 87"}, "[2]": {"conditions": "10-12.5 mg, multiple injections, N 89"}, "[3]": {"conditions": "10-25 mg, single injection, N 23"}}, "note": "Structures can show the parent of a compound that is named as a salt.", "data": [{"smiles": "CC(COc1ccccc1)N(CCCl)Cc1ccccc1", "note": "(stereo not drawn) [Phenoxybenzamine Hydrochloride, phenoxybenzamine hydrochloride]", "values": [{"measurement": "frequencies of adverse events in additional 131 subjects compared with Table 3", "setting": "3 mg dose", "value": "similar"}, {"measurement": "Bruising at injection site, % of subjects", "setting": "[1]", "value": "(1%)"}, {"measurement": "Bruising at injection site, number of subjects", "setting": "[1]", "value": 1}, {"measurement": "Burning, % of subjects", "setting": "[1]", "value": "(0%)"}, {"measurement": "Cold sensation, % of subjects", "setting": "[1]", "value": "(0%)"}, {"measurement": "Diaphoresis, % of subjects", "setting": "[1]", "value": "(0%)"}, {"measurement": "Diarrhea, % of subjects", "setting": "[1]", "value": "(0%)"}, {"measurement": "Dizziness, % of subjects", "setting": "[1]", "value": "(3%)"}, {"measurement": "Dizziness, number of subjects", "setting": "[1]", "value": 3}, {"measurement": "Dry mouth, % of subjects", "setting": "[1]", "value": "(0%)"}, {"measurement": "Dysphagia, % of subjects", "setting": "[1]", "value": "(0%)"}, {"measurement": "Dyspnea, % of subjects", "setting": "[1]", "value": "(1%)"}, {"measurement": "Dyspnea, number of subjects", "setting": "[1]", "value": 1}, {"measurement": "Epistaxis, % of subjects", "setting": "[1]", "value": "(0%)"}, {"measurement": "Fatigue, % of subjects", "setting": "[1]", "value": "(3%)"}, {"measurement": "Fatigue, number of subjects", "setting": "[1]", "value": 3}, {"measurement": "Fever, % of subjects", "setting": "[1]", "value": "(0%)"}, {"measurement": "Flu syndrome, % of subjects", "setting": "[1]", "value": "(1%)"}, {"measurement": "Flu syndrome, number of subjects", "setting": "[1]", "value": 1}, {"measurement": "Hair disorder, % of subjects", "setting": "[1]", "value": "(1%)"}, {"measurement": "Hair disorder, number of subjects", "setting": "[1]", "value": 1}, {"measurement": "Headache, % of subjects", "setting": "[1]", "value": "(3%)"}, {"measurement": "Headache, number of subjects", "setting": "[1]", "value": 3}, {"measurement": "Hypesthesia, % of subjects", "setting": "[1]", "value": "(0%)"}, {"measurement": "Injection site drainage, % of subjects", "setting": "[1]", "value": "(0%)"}, {"measurement": "Injection site soreness, % of subjects", "setting": "[1]", "value": "(21%)"}, {"measurement": "Injection site soreness, number of subjects", "setting": "[1]", "value": 18}, {"measurement": "Injection site swelling, % of subjects", "setting": "[1]", "value": 23, "unit": "%"}, {"measurement": "Injection site swelling, number of subjects", "setting": "[1]", "value": 20}, {"measurement": "Lethargy, % of subjects", "setting": "[1]", "value": "(1%)"}, {"measurement": "Lethargy, number of subjects", "setting": "[1]", "value": 1}, {"measurement": "Lightheadedness, % of subjects", "setting": "[1]", "value": "(0%)"}, {"measurement": "Nasal disorder, % of subjects", "setting": "[1]", "value": "(0%)"}, {"measurement": "Nausea, % of subjects", "setting": "[1]", "value": "(2%)"}, {"measurement": "Nausea, number of subjects", "setting": "[1]", "value": 2}, {"measurement": "Pain, % of subjects", "setting": "[1]", "value": "(5%)"}, {"measurement": "Pain, number of subjects", "setting": "[1]", "value": 4}, {"measurement": "Palpitations, % of subjects", "setting": "[1]", "value": "(0%)"}, {"measurement": "Paresthesia, % of subjects", "setting": "[1]", "value": "(0%)"}, {"measurement": "Pharyngitis, % of subjects", "setting": "[1]", "value": "(0%)"}, {"measurement": "Pruritis, % of subjects", "setting": "[1]", "value": "(0%)"}, {"measurement": "Rash, % of subjects", "setting": "[1]", "value": 0, "unit": "%"}, {"measurement": "Stiffness, % of subjects", "setting": "[1]", "value": "(1%)"}, {"measurement": "Stiffness, number of subjects", "setting": "[1]", "value": 1}, {"measurement": "Swelling, % of subjects", "setting": "[1]", "value": "(0%)"}, {"measurement": "Syncope, % of subjects", "setting": "[1]", "value": "(0%)"}, {"measurement": "Tachycardia, % of subjects", "setting": "[1]", "value": "(0%)"}, {"measurement": "Taste disorder, % of subjects", "setting": "[1]", "value": "(1%)"}, {"measurement": "Taste disorder, number of subjects", "setting": "[1]", "value": 1}, {"measurement": "Tremor, % of subjects", "setting": "[1]", "value": "(1%)"}, {"measurement": "Tremor, number of subjects", "setting": "[1]", "value": 1}, {"measurement": "Vomiting, % of subjects", "setting": "[1]", "value": "(0%)"}, {"measurement": "Bruising at injection site, % of subjects", "setting": "[2]", "value": "(11%)"}, {"measurement": "Bruising at injection site, number of subjects", "setting": "[2]", "value": 10}, {"measurement": "Burning, % of subjects", "setting": "[2]", "value": "(3%)"}, {"measurement": "Burning, number of subjects", "setting": "[2]", "value": 3}, {"measurement": "Cold sensation, % of subjects", "setting": "[2]", "value": "(1%)"}, {"measurement": "Cold sensation, number of subjects", "setting": "[2]", "value": 1}, {"measurement": "Diaphoresis, % of subjects", "setting": "[2]", "value": "(1%)"}, {"measurement": "Diaphoresis, number of subjects", "setting": "[2]", "value": 1}, {"measurement": "Diarrhea, % of subjects", "setting": "[2]", "value": "(2%)"}, {"measurement": "Diarrhea, number of subjects", "setting": "[2]", "value": 2}, {"measurement": "Dizziness, % of subjects", "setting": "[2]", "value": "(20%)"}, {"measurement": "Dizziness, number of subjects", "setting": "[2]", "value": 18}, {"measurement": "Dry mouth, % of subjects", "setting": "[2]", "value": "(1%)"}, {"measurement": "Dry mouth, number of subjects", "setting": "[2]", "value": 1}, {"measurement": "Dysphagia, % of subjects", "setting": "[2]", "value": "(0%)"}, {"measurement": "Dyspnea, % of subjects", "setting": "[2]", "value": "(3%)"}, {"measurement": "Dyspnea, number of subjects", "setting": "[2]", "value": 3}, {"measurement": "Epistaxis, % of subjects", "setting": "[2]", "value": "(0%)"}, {"measurement": "Fatigue, % of subjects", "setting": "[2]", "value": "(4%)"}, {"measurement": "Fatigue, number of subjects", "setting": "[2]", "value": 4}, {"measurement": "Fever, % of subjects", "setting": "[2]", "value": "(1%)"}, {"measurement": "Fever, number of subjects", "setting": "[2]", "value": 1}, {"measurement": "Flu syndrome, % of subjects", "setting": "[2]", "value": "(1%)"}, {"measurement": "Flu syndrome, number of subjects", "setting": "[2]", "value": 1}, {"measurement": "Hair disorder, % of subjects", "setting": "[2]", "value": "(0%)"}, {"measurement": "Headache, % of subjects", "setting": "[2]", "value": "(10%)"}, {"measurement": "Headache, number of subjects", "setting": "[2]", "value": 9}, {"measurement": "Hypesthesia, % of subjects", "setting": "[2]", "value": "(4%)"}, {"measurement": "Hypesthesia, number of subjects", "setting": "[2]", "value": 4}, {"measurement": "Injection site drainage, % of subjects", "setting": "[2]", "value": "(2%)"}, {"measurement": "Injection site drainage, number of subjects", "setting": "[2]", "value": 2}, {"measurement": "Injection site soreness, % of subjects", "setting": "[2]", "value": "(37%)"}, {"measurement": "Injection site soreness, number of subjects", "setting": "[2]", "value": 33}, {"measurement": "Injection site swelling, % of subjects", "setting": "[2]", "value": 45, "unit": "%"}, {"measurement": "Injection site swelling, number of subjects", "setting": "[2]", "value": 40}, {"measurement": "Lethargy, % of subjects", "setting": "[2]", "value": "(0%)"}, {"measurement": "Lightheadedness, % of subjects", "setting": "[2]", "value": "(13%)"}, {"measurement": "Lightheadedness, number of subjects", "setting": "[2]", "value": 12}, {"measurement": "Nasal disorder, % of subjects", "setting": "[2]", "value": "(2%)"}, {"measurement": "Nasal disorder, number of subjects", "setting": "[2]", "value": 2}, {"measurement": "Nausea, % of subjects", "setting": "[2]", "value": "(18%)"}, {"measurement": "Nausea, number of subjects", "setting": "[2]", "value": 16}, {"measurement": "Pain, % of subjects", "setting": "[2]", "value": "(0%)"}, {"measurement": "Palpitations, % of subjects", "setting": "[2]", "value": "(1%)"}, {"measurement": "Palpitations, number of subjects", "setting": "[2]", "value": 1}, {"measurement": "Paresthesia, % of subjects", "setting": "[2]", "value": "(3%)"}, {"measurement": "Paresthesia, number of subjects", "setting": "[2]", "value": 3}, {"measurement": "Pharyngitis, % of subjects", "setting": "[2]", "value": "(1%)"}, {"measurement": "Pharyngitis, number of subjects", "setting": "[2]", "value": 1}, {"measurement": "Pruritis, % of subjects", "setting": "[2]", "value": "(1%)"}, {"measurement": "Pruritis, number of subjects", "setting": "[2]", "value": 1}, {"measurement": "Rash, % of subjects", "setting": "[2]", "value": 2, "unit": "%"}, {"measurement": "Rash, number of subjects", "setting": "[2]", "value": 2}, {"measurement": "Stiffness, % of subjects", "setting": "[2]", "value": "(2%)"}, {"measurement": "Stiffness, number of subjects", "setting": "[2]", "value": 2}, {"measurement": "Swelling, % of subjects", "setting": "[2]", "value": "(2%)"}, {"measurement": "Swelling, number of subjects", "setting": "[2]", "value": 2}, {"measurement": "Syncope, % of subjects", "setting": "[2]", "value": "(7%)"}, {"measurement": "Syncope, number of subjects", "setting": "[2]", "value": 6}, {"measurement": "Tachycardia, % of subjects", "setting": "[2]", "value": "(0%)"}, {"measurement": "Taste disorder, % of subjects", "setting": "[2]", "value": "(2%)"}, {"measurement": "Taste disorder, number of subjects", "setting": "[2]", "value": 2}, {"measurement": "Tremor, % of subjects", "setting": "[2]", "value": "(1%)"}, {"measurement": "Tremor, number of subjects", "setting": "[2]", "value": 1}, {"measurement": "Vomiting, % of subjects", "setting": "[2]", "value": "(8%)"}, {"measurement": "Vomiting, number of subjects", "setting": "[2]", "value": 7}, {"measurement": "Bruising at injection site, % of subjects", "setting": "[3]", "value": "(0%)"}, {"measurement": "Burning, % of subjects", "setting": "[3]", "value": "(4%)"}]}]}
